According to ChEMBL document CHEMBL1145498, “A systematic interaction map of validated kinase inhibitors with Ser/Thr kinases” (Proc Natl Acad Sci U S A, 2007):

Assays:
[1] = biological target: Cyclin-dependent kinase 2 (Homo sapiens, UniProt P24941)
[2] = biological target: T1, Serine/threonine-protein kinase PLK4 (Homo sapiens) (UniProt O00444)
T1 sequence (whole entry): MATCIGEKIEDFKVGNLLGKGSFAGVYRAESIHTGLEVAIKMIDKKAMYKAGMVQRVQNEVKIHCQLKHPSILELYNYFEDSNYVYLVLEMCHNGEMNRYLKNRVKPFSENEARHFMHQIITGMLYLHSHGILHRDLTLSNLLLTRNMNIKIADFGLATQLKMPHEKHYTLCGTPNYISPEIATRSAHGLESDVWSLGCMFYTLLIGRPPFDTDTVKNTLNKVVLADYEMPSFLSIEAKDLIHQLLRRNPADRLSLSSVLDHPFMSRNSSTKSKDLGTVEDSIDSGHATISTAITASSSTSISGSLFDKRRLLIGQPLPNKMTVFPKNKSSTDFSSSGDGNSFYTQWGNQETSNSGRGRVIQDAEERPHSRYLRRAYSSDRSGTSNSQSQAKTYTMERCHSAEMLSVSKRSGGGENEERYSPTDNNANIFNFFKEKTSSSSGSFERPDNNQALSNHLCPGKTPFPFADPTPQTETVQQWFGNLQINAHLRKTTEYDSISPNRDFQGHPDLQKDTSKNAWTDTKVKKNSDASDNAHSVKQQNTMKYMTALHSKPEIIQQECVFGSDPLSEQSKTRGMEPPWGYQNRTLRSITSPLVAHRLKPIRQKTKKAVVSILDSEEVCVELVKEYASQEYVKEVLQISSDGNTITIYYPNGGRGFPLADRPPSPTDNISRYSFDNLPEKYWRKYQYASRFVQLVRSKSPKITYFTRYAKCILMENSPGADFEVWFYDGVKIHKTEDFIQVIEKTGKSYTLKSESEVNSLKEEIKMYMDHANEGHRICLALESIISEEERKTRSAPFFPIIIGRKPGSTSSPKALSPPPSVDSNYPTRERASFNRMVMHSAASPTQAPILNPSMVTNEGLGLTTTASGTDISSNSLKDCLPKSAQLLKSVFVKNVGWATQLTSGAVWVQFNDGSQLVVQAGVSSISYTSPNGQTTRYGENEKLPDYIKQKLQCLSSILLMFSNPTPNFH

[3] = biological target: T2, Serine/threonine-protein kinase Nek2 (Homo sapiens) (UniProt P51955)
T2 sequence (whole entry): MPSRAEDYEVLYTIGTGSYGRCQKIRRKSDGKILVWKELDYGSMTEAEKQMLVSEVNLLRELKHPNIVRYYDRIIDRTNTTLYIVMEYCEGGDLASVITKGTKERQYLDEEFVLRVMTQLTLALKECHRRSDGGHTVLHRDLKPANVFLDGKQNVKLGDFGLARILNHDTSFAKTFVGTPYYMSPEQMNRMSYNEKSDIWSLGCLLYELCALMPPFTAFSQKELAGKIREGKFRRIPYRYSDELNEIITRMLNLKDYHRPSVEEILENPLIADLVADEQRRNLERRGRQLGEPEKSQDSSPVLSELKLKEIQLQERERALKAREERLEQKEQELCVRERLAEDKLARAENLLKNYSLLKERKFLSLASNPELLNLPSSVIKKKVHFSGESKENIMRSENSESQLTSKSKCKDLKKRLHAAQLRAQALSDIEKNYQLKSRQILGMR

[4] = biological target: Serine/threonine-protein kinase PAK 6 (Homo sapiens) (UniProt Q9NQU5)
Serine/threonine-protein kinase PAK 6 (Homo sapiens), sequence (Q9NQU5 whole entry, looked up): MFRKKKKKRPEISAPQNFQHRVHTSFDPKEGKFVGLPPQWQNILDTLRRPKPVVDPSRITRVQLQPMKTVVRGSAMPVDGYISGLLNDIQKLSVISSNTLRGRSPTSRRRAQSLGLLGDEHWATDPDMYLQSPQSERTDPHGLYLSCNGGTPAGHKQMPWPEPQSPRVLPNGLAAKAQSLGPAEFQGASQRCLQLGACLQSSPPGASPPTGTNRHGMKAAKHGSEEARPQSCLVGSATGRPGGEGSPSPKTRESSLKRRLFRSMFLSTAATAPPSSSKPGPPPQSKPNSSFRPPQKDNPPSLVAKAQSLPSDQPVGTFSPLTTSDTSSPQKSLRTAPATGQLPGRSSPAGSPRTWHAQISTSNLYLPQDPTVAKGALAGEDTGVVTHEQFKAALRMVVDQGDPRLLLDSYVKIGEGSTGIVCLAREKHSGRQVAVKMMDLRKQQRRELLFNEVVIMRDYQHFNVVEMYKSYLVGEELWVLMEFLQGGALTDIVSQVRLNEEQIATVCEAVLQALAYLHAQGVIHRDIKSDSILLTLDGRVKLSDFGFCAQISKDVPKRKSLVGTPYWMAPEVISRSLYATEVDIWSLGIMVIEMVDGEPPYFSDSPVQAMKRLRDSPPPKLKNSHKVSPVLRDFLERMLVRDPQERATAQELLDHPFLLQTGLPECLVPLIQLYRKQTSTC

[5] = biological target: Serine/threonine-protein kinase 26 (Homo sapiens) (UniProt Q9P289)
Serine/threonine-protein kinase 26 (Homo sapiens), sequence (Q9P289 2-416 limits assumed): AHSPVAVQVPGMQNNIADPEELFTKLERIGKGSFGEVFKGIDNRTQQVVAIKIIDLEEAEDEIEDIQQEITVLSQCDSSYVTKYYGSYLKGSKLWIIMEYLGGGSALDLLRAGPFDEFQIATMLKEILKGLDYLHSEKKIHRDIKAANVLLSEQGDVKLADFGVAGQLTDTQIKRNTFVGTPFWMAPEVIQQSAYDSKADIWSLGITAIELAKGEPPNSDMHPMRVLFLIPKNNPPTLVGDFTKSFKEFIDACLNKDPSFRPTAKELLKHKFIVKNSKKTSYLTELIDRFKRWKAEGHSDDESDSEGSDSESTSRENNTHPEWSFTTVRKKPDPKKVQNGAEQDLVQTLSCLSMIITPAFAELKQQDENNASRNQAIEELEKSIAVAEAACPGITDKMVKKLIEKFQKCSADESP

[6] = biological target: T3, Serine/threonine-protein kinase 17A (Homo sapiens) (UniProt Q9UEE5)
T3 sequence (whole entry): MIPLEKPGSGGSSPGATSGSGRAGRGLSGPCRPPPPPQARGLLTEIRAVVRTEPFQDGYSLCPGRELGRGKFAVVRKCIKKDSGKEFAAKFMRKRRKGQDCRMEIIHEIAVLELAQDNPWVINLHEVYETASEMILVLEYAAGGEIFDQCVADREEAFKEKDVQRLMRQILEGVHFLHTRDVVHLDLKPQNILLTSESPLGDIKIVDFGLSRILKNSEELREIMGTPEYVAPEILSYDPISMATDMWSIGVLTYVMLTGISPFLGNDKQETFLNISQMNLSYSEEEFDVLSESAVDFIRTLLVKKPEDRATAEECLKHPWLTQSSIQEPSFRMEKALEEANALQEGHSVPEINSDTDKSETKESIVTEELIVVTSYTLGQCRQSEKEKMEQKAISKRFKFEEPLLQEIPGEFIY

[7] = biological target: cAMP-dependent protein kinase catalytic subunit alpha (Homo sapiens) (UniProt P17612)
[8] = biological target: Death-associated protein kinase 3 (Homo sapiens) (UniProt O43293)
Death-associated protein kinase 3 (Homo sapiens), sequence (O43293 whole entry, looked up): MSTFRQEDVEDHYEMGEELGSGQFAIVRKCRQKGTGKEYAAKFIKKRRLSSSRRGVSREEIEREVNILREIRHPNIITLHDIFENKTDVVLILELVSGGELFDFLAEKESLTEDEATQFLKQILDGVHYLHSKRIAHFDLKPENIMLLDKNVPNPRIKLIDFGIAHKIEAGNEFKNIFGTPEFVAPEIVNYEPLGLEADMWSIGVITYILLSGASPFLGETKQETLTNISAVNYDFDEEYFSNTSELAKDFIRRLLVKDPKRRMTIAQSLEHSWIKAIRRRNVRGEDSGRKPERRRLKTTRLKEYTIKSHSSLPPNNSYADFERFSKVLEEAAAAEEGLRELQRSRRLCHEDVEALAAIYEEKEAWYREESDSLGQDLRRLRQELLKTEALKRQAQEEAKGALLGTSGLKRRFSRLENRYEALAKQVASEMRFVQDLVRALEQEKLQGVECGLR

[9] = biological target: T4, Serine/threonine-protein kinase VRK3 (Homo sapiens) (UniProt Q8IV63)
T4 sequence (whole entry): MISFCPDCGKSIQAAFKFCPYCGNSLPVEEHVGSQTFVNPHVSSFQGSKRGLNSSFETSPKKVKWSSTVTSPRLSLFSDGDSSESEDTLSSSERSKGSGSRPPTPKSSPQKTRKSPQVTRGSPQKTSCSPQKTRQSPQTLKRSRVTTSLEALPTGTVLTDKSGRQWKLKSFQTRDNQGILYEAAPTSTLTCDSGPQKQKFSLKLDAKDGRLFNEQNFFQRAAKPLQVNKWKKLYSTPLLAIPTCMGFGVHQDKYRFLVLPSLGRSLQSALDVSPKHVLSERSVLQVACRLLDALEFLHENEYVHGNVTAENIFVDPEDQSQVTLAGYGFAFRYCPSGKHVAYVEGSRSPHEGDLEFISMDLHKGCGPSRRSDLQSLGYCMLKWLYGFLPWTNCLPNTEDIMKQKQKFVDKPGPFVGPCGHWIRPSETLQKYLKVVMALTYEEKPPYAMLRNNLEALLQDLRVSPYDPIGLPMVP

[10] = biological target: Dual specificity protein kinase CLK3 (Homo sapiens) (UniProt P49761)
Dual specificity protein kinase CLK3 (Homo sapiens), sequence (P49761 whole entry, looked up): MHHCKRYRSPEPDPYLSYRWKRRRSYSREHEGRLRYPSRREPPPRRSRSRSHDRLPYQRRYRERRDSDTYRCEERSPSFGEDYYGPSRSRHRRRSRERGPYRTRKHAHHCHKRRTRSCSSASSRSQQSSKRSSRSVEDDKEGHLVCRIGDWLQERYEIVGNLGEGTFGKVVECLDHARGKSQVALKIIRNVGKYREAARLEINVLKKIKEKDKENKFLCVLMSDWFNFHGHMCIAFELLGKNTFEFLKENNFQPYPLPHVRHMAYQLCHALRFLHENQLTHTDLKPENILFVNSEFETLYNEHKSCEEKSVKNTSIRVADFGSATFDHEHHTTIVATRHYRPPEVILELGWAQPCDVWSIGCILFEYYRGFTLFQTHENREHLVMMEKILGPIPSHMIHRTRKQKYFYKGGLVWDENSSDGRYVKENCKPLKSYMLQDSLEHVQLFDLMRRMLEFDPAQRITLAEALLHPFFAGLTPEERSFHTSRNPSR

[11] = biological target: Serine/threonine-protein kinase 26 (Homo sapiens) (UniProt Q9P289); remark: listed apart in the source
[12] = biological target: 5'-AMP-activated protein kinase catalytic subunit alpha-2 (Homo sapiens) (UniProt P54646)
5'-AMP-activated protein kinase catalytic subunit alpha-2 (Homo sapiens), sequence (P54646 whole entry, looked up): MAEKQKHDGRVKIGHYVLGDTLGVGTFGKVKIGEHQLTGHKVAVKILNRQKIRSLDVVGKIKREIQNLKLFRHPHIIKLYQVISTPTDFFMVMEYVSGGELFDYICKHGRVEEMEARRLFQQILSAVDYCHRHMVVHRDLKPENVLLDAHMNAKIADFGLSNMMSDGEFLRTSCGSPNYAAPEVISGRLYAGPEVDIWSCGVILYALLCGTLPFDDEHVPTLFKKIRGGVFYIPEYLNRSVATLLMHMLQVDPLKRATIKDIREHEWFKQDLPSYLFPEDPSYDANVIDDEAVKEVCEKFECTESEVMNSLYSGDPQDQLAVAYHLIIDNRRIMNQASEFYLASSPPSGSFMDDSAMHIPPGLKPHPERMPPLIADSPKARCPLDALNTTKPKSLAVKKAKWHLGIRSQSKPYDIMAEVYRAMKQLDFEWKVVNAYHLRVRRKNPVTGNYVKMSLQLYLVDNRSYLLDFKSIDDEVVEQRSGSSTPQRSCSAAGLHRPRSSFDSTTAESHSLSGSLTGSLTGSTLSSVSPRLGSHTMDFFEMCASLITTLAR

[13] = biological target: Serine/threonine-protein kinase 38 (Homo sapiens) (UniProt Q15208)
Serine/threonine-protein kinase 38 (Homo sapiens), sequence (Q15208 2-465 limits assumed): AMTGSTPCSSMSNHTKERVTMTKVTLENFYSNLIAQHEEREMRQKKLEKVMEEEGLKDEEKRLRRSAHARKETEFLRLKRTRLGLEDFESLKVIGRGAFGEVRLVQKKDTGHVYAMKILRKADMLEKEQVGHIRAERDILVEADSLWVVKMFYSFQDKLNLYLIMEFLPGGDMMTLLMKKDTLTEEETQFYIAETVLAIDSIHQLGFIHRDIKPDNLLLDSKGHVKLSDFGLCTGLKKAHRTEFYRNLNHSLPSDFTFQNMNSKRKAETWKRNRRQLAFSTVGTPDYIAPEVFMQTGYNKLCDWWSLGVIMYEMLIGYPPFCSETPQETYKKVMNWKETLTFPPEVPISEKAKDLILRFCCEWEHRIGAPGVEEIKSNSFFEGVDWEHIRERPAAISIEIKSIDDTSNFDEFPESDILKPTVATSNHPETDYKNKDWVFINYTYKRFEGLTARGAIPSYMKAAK

[14] = biological target: Casein kinase I isoform gamma-1 (Homo sapiens) (UniProt Q9HCP0)
Casein kinase I isoform gamma-1 (Homo sapiens), sequence (Q9HCP0 whole entry, looked up, canonical isoform): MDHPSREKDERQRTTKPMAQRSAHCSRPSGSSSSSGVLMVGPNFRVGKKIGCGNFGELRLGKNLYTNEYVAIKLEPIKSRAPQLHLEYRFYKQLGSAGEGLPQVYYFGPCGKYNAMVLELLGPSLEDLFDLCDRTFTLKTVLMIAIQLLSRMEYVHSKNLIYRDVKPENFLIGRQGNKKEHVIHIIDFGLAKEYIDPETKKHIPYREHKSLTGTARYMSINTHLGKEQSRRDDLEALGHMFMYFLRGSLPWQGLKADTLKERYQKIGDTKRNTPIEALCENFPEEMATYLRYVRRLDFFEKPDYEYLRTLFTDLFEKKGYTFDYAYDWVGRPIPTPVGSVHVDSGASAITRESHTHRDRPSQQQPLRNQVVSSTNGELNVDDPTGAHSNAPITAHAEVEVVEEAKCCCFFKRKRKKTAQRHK

Compound | ΔTm [1] [°C] | ΔTm [2] [°C] | ΔTm [3] [°C] | ΔTm [4] [°C] | ΔTm [5] [°C] | ΔTm [6] [°C] | ΔTm [7] [°C] | ΔTm [8] [°C] | ΔTm [9] [°C] | ΔTm [10] [°C] | ΔTm [11] [°C] | ΔTm [12] [°C] | ΔTm [13] [°C] | ΔTm [14] [°C]
O=C1C(Cl)=C(N2C(=O)CCC2=O)C(=O)c2ccccc21 | -1.1 | -3.7 | 2.5 | -5 | -2.1 | 0.5 | -0.2 | -7.6 | -0.7 | -1.3 | -1.4 | 0.6 | -1.4 | 0.7
CN(C)c1ncnc2nc[nH]c12 [DIMETHYLADENINE] | 0.3 | 1.3 | 0.8 | -0.3 | 0 | 1.5 | 0.7 | 0.9 | -1 | 0.4 | 0.1 | -0.6 | 0.3 | -0.1
